According to US8952024B2, “Herbicidal pyrimidone derivatives” (E I du Pont de Nemours and Company, priority 2009, dated 2015):

Tests used:
Format in all cases: in vivo
[1] = system: barnyardgrass (Echinochloa crus-galli); test: Test A pre-/postemergence plant response
In short: (§1)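 Both pre- and postemergence treatments are applied simultaneously, using chemicals formulated in a non-phytotoxic solvent mixture with surfactant. Postemergence plants are 2–10 cm high with one to two leaves. After approximately ten days in a greenhouse, injury is scored visually from 0 (none) to 100 (complete control) relative to untreated plants.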

corn (Zea mays) = test: Test A pre-/postemergence plant response
In short: as §1

[2] = system: giant foxtail (Setaria faberii); test: Test A pre-/postemergence plant response
In short: as §1

[3] = system: large crabgrass (Digitaria sanguinalis); test: Test A pre-/postemergence plant response
In short: as §1

[4] = system: morningglory (Ipomoea spp.); test: Test A pre-/postemergence plant response
In short: as §1

[5] = system: pigweed (Amaranthus retroflexus); test: Test A pre-/postemergence plant response
In short: as §1

[6] = system: velvetleaf (Abutilon theophrasti); test: Test A pre-/postemergence plant response
In short: as §1

[7] = system: wheat (Triticum aestivum); test: Test A pre-/postemergence plant response
In short: as §1

[8] = system: barnyardgrass (Echinochloa crus-galli); test: Test B flooded paddy test; settings: for Plant response rating, Flood, Barnyardgrass: 250 g ai/ha, flooded paddy test, visual rating on 0 to 100 scale (0 no effect, 100 complete control) after 13 to 15 days; for Plant response rating, Barnyardgrass: Flood (flooded paddy test), 13 to 15 days; for Barnyardgrass plant response rating: Flood, 31 g ai/ha, scale 0 to 100 (0 no effect, 100 complete control)
In short: (§2)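 Each compound is added to standing floodwater (3 cm above soil, maintained) in pots of 2-leaf-stage plants; greenhouse exposure lasts 13–15 d before visual comparison with controls on a 0–100 control scale.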

[9] = system: ducksalad (Heteranthera limosa); test: Test B flooded paddy test; settings: for Plant response rating, Flood, Ducksalad: 250 g ai/ha, flooded paddy test, visual rating on 0 to 100 scale (0 no effect, 100 complete control) after 13 to 15 days; for Plant response rating, Ducksalad: Flood (flooded paddy test), 13 to 15 days; for Ducksalad plant response rating: Flood, 31 g ai/ha, scale 0 to 100 (0 no effect, 100 complete control)
In short: as §2

rice (Oryza sativa) = test: Test B flooded paddy test; settings: for Plant response rating, Flood, Rice: 250 g ai/ha, flooded paddy test, visual rating on 0 to 100 scale (0 no effect, 100 complete control) after 13 to 15 days; for Plant response rating, Rice: Flood (flooded paddy test), 13 to 15 days; for Rice plant response rating: Flood, 31 g ai/ha, scale 0 to 100 (0 no effect, 100 complete control)
In short: as §2

[10] = system: umbrella sedge (Cyperus difformis); test: Test B flooded paddy test; settings: for Plant response rating, Flood, Sedge, Umbrella: 250 g ai/ha, flooded paddy test, visual rating on 0 to 100 scale (0 no effect, 100 complete control) after 13 to 15 days; for Plant response rating, Sedge, Umbrella: Flood (flooded paddy test), 13 to 15 days; for Sedge, Umbrella plant response rating: Flood, 31 g ai/ha, scale 0 to 100 (0 no effect, 100 complete control)
In short: as §2

[11] = Postemergence, 125 g ai/ha, 0 to 100 scale where 0 is no effect and 100 is complete control
[12] = Postemergence, 500 g ai/ha, 0 to 100 scale, 0 = no effect, 100 = complete control, approx. ten days
[13] = Preemergence, 125 g ai/ha, 0 to 100 scale, 0 = no effect, 100 = complete control
[14] = Preemergence, 500 g ai/ha, visual injury, 0 to 100 scale (0 no effect, 100 complete control), approx. ten days
[15] = 62 g ai/ha, scale of 0 to 100 where 0 is no effect and 100 is complete control
[16] = 125 g ai/ha, scale 0 to 100, 0 is no effect, 100 is complete control
[17] = Postemergence, 500 g ai/ha, visual injury, 0 to 100 scale (0 no effect, 100 complete control), approx. ten days
[18] = Preemergence, 500 g ai/ha, 0 to 100 scale, 0 = no effect, 100 = complete control

In the case of `CCCc1ncc(C(=O)C2=C(O)CCCC2=O)c(=O)n1Cc1ccccc1` [Compound 103], the “Plant response rating, Barnyardgrass” value [1, 11] is reported as 30, the “Plant response rating, Barnyardgrass” value [1, 12] is reported as 60 and the “Plant response rating, Barnyardgrass” value [1, 13] is reported as 0. The “Plant response rating, Barnyardgrass” value [1, 14] was 20, the “Plant response rating, Corn” value (corn (Zea mays); [11]) was 0 and the “Plant response rating, Corn” value (corn (Zea mays); [12]) was 20. For the same compound, the “Plant response rating, Corn” value (corn (Zea mays); [13]) was 0, the “Plant response rating, Corn” value (corn (Zea mays); [14]) was 0 and the “Plant response rating, Foxtail, Giant” value [2, 11] was 0. The “Plant response rating, Foxtail, Giant” value [2, 12] was 20, the “Plant response rating, Foxtail, Giant” value [2, 13] was 0 and the “Plant response rating, Foxtail, Giant” value [2, 14] was 60. For the same compound, the “Plant response rating, Crabgrass, Large” value [3, 11] was 10, the “Plant response rating, Crabgrass, Large” value [3, 12] was 40 and the “Plant response rating, Crabgrass, Large” value [3, 13] was 40. The “Plant response rating, Crabgrass, Large” value [3, 14] was 80, the “Plant response rating, Morningglory” value [4, 11] was 100 and the “Plant response rating, Morningglory” value [4, 12] was 100. For the same compound, the “Plant response rating, Morningglory” value [4, 13] was 20, the “Plant response rating, Morningglory” value [4, 14] was 60 and the “Plant response rating, Pigweed” value [5, 11] was 100. The “Plant response rating, Pigweed” value [5, 12] was 100, the “Plant response rating, Pigweed” value [5, 13] was 90 and the “Plant response rating, Pigweed” value [5, 14] was 100. For the same compound, the “Plant response rating, Velvetleaf” value [6, 11] was 100, the “Plant response rating, Velvetleaf” value [6, 12] was 100 and the “Plant response rating, Velvetleaf” value [6, 13] was 60. For the same compound, the “Plant response rating, Velvetleaf” value [6, 14] was 90, the “Plant response rating, Wheat” value [7, 11] was 0 and the “Plant response rating, Wheat” value [7, 12] was 0. The “Plant response rating, Wheat” value [7, 13] was 0, the “Plant response rating, Wheat” value [7, 14] was 0 and the “Plant response rating, Flood, Barnyardgrass” value [8] was 0. The “Plant response rating, Barnyardgrass” value [8, 15] was 0, the “Plant response rating, Barnyardgrass” value [8, 16] was 0 and the “Barnyardgrass plant response rating” value [8] was 0. The “Plant response rating, Flood, Ducksalad” value [9] was 0, the “Plant response rating, Ducksalad” value [9, 15] was 0 and the “Plant response rating, Ducksalad” value [9, 16] was 0. For the same compound, the “Ducksalad plant response rating” value [9] was 0, the “Plant response rating, Flood, Rice” value (rice (Oryza sativa)) was 0 and the “Plant response rating, Rice” value (rice (Oryza sativa); [15]) was 0. For the same compound, the “Plant response rating, Rice” value (rice (Oryza sativa); [16]) was 0, the “Rice plant response rating” value (rice (Oryza sativa)) was 0 and the “Plant response rating, Flood, Sedge, Umbrella” value [10] was 0. For the same compound, the “Plant response rating, Sedge, Umbrella” value [10, 15] was 0, the “Plant response rating, Sedge, Umbrella” value [10, 16] was 0 and the “Sedge, Umbrella plant response rating” value [10] was 0.

With `O=C1CCCC(O)=C1C(=O)c1cnc(-c2cc(F)cc(F)c2)n(-c2ccccc2)c1=O` [Compound 161] the “Plant response rating, Barnyardgrass” value [1, 11] was 30, the “Barnyardgrass plant response rating” value [1, 17] was 90 and the “Plant response rating, Barnyardgrass” value [1, 13] was 10. For the same compound, the “Plant response rating, Barnyardgrass” value [1, 18] was 90, the “Plant response rating, Corn” value (corn (Zea mays); [11]) was 0 and the “Corn plant response rating” value (corn (Zea mays); [17]) was 10. The “Plant response rating, Corn” value (corn (Zea mays); [13]) was 0, the “Plant response rating, Corn” value (corn (Zea mays); [18]) was 0 and the “Plant response rating, Foxtail, Giant” value [2, 11] was 40. The “Foxtail, Giant plant response rating” value [2, 17] was 90, the “Plant response rating, Foxtail, Giant” value [2, 13] was 50 and the “Plant response rating, Foxtail, Giant” value [2, 18] was 80. For the same compound, the “Plant response rating, Crabgrass, Large” value [3, 11] was 60, the “Crabgrass, Large plant response rating” value [3, 17] was 90 and the “Plant response rating, Crabgrass, Large” value [3, 13] was 50. For the same compound, the “Plant response rating, Crabgrass, Large” value [3, 18] was 90, the “Plant response rating, Morningglory” value [4, 11] was 60 and the “Morningglory plant response rating” value [4, 17] was 100. For the same compound, the “Plant response rating, Morningglory” value [4, 13] was 0, the “Plant response rating, Morningglory” value [4, 18] was 40 and the “Plant response rating, Pigweed” value [5, 11] was 80. For the same compound, the “Pigweed plant response rating” value [5, 17] was 100, the “Plant response rating, Pigweed” value [5, 13] was 90 and the “Plant response rating, Pigweed” value [5, 18] was 100. The “Plant response rating, Velvetleaf” value [6, 11] was 100, the “Velvetleaf plant response rating” value [6, 17] was 100 and the “Plant response rating, Velvetleaf” value [6, 13] was 70. The “Plant response rating, Velvetleaf” value [6, 18] was 90, the “Plant response rating, Wheat” value [7, 11] was 0 and the “Wheat plant response rating” value [7, 17] was 0. The “Plant response rating, Wheat” value [7, 13] was 0, the “Plant response rating, Wheat” value [7, 18] was 0 and the “Plant response rating, Flood, Barnyardgrass” value [8] was 30. The “Plant response rating, Barnyardgrass” value [8, 15] was 0, the “Plant response rating, Barnyardgrass” value [8, 16] was 0 and the “Barnyardgrass plant response rating” value [8] was 0. The “Plant response rating, Flood, Ducksalad” value [9] was 80, the “Plant response rating, Ducksalad” value [9, 15] was 0 and the “Plant response rating, Ducksalad” value [9, 16] was 0. For the same compound, the “Ducksalad plant response rating” value [9] was 0, the “Plant response rating, Flood, Rice” value (rice (Oryza sativa)) was 50 and the “Plant response rating, Rice” value (rice (Oryza sativa); [15]) was 50. For the same compound, the “Plant response rating, Rice” value (rice (Oryza sativa); [16]) was 45, the “Rice plant response rating” value (rice (Oryza sativa)) was 25 and the “Plant response rating, Flood, Sedge, Umbrella” value [10] was 60. The “Plant response rating, Sedge, Umbrella” value [10, 15] was 0, the “Plant response rating, Sedge, Umbrella” value [10, 16] was 0 and the “Sedge, Umbrella plant response rating” value [10] was 0.
